Results published in patent US20130274196A1, “METHOD FOR TREATMENT OF INFLAMMATORY DISEASE AND DISORDER” (HEALOR LTD., priority 2010, published 2013).
“And” between values parts separate entries of the source, which are not always exact repeats. Equal values may be shown once. “Also recorded” adds a separate entry of the source. The star is where a group is joined. Palmitoyl = CCCCCCCCCCCCCCCC(=O)*; Myristoyl = CCCCCCCCCCCCCC(=O)*

Experiments:
EAE mice = assay: Experimental allergic encephalomyelitis (EAE), MOG35-55/CFA immunized mice; type: in vivo, C57BL/6J mice; conditions: for Number of dead mice during 49 days: n=7; for Score on day 18 / Score on day 29 / Score on day 37: EAE scale 0-6; for EAE score on the initial day: scale 0-6
keratinocytes = assay: Cytokine secretion in LPS, TNFα or IL-17 activated keratinocytes treated with peptide PKCα inhibitors (ELISA); type: cell-based, BALB/C mice; conditions: for cytokine secretion in keratinocytes: stimulated by LPS, TNFα, or IL-17, medium collected after 48 hr
Experimental: To determine their effects, keratinocytes were derived from newborn BALB/C mice skin. The cells were incubated for 5 days in 24 wells plate. Cells were then incubated with PBS −/− as control or stimulated by LPS, TNFα, or IL-17. PKCα inhibitors were added as indicated. Medium containing secreted cytokines was collected after 48 hr and analyzed using ELISA. FIG. 50 is a tabular summary of cytokine secretion.

C57BL mice [1] = assay: Incision wounds treated 7 days, histological analysis (Example 9); type: in vivo
Experimental: Wounds were performed on the back of 8-10 week old C57BL mice by incision and were treated daily for 7 days with either vehicle (PBS) control or with 1 μM insulin (Humulin, Eli Lilly, USA) or a mixture of 1 μM insulin combined with 1 μM of the PKCα inhibitor of SEQ ID NO: 6. Seven days after wounding all mice were sacrificed and treated wounds were histologically analyzed for proliferative capacity of the epidermis (proliferating cell nuclear antigen-PCNA), angiogenesis, inflammation, epidermal cells and the remodeling processes at the wound gap.

C57BL mice [2] = assay: Incision wounds treated 7 days, severe inflammation incidence (Example 10); type: in vivo; conditions: 1 μM daily for 7 days
Experimental: Wounds were performed on the back of C57BL mice by incision and were treated daily for 7 days with: (i) PBS, control; (ii) 1 μM of the PKCα inhibitor of SEQ ID NO: 6; (iii) 1 μM insulin (Humulin, Eli Lilly, USA); or (iv) a mixture of 1 μM PKCα inhibitor and 1 μM insulin.

[3] = tested on: STZ-induced diabetic C57BL/6J mice; assay: Wound healing in STZ-induced diabetic mice; type: in vivo
Experimental: Full thickness skin incisions (20 mm) were performed on the upper back of anesthetized streptozocin (STZ)-injected (175 mg/kg body weight) diabetic, citrate buffer injected (6 mice/group) non-diabetic, and non-injected (6 mice/group), C57BL/6J mice. Periodical blood glucose monitoring was performed by measuring glucose levels from tail vein after STZ injection. […] Following incision, STZ-induced diabetic wounds were treated daily by application of PBS (7/6 mice/group), insulin (0.1 units/ml) (6 mice/group), the PKCa inhibitor of SEQ ID NO:6 (1 μg/ml) (7/5 mice/group) or a formulation (herein designated HO/03/03) containing insulin and the N-myristoylated PKCα inhibitor of SEQ ID NO: 6 (7/6 mice/group) directly to the surgical dressing. Biopsies were collected 9 days post-wounding. Wounds were excised from euthanized animals for evaluation of wound-healing parameters by histology and immunohistochemistry.
Wounds were assessed for epidermal closure by Keratin 14 staining. Wounds were considered closed when complete epidermal staining was observed across the wound gap. Dermal contraction was considered when both dermal edges were visible in a fixed field ×100 magnification utilizing H&E staining. Epidermal differentiation was assessed by Keratin 1 staining.
The organization of hypodermis was assessed by the presence (or absence) of hypodermis at both wound edges. Granulation tissue formation was assessed by the presence of fibroblasts and collagen fibers in the wound bed. The wound was considered positive for granulation tissue formation when a continuous layer of granulation tissue was present in the wound gap. In addition, we have defined 3 specific histological parameters characterizing severe inflammation of diabetic wounds: (i) abscess formation at the wounded area, (ii) excessive leukocytosis (>100 cells in a fixed field (×200)) and (iii) high white blood cells (WBC)/red blood cells (RBC) ratio within the blood vessels shown in a fixed field (×200). When at least 2 of these parameters are present at the wound gap, the wound is considered severely inflamed.

[4] = individual wounds, 1 μM daily for 7 days, listed as Insulin only
[5] = 9-days post wounding, percent of wounds in group, insulin 0.1 units, HO/02 1 ug/ml
[6] = 9-days post wounding, percent of wounds in group, insulin 0.1 units, SEQ ID NO: 6 1 ug/ml

Substance: CRAMP [reference compound]
- The initial day (of illness signs) (EAE mice; 0.2 mg/kg): 10 days
- Number of dead mice during 49 days (EAE mice; 0.2 mg/kg i.p. three times a week): 2
- Score on day 18 (EAE mice; 0.2 mg/kg): 3.214
- Score on day 29 (EAE mice; 0.2 mg/kg): 2.000
- Score on day 37 (EAE mice; 0.2 mg/kg): 2.571
- EAE score on the initial day (EAE mice; 0.2 mg/kg): 0.571
- The initial day (of illness signs) (EAE mice; 2 mg/kg): 11 days
- Number of dead mice during 49 days (EAE mice; 2 mg/kg i.p. three times a week): 2
- Score on day 18 (EAE mice; 2 mg/kg): 2.643
- Score on day 29 (EAE mice; 2 mg/kg): 2.643
- Score on day 37 (EAE mice; 2 mg/kg): 2.143
- EAE score on the initial day (EAE mice; 2 mg/kg): 0.143

Substance: H-Phe-Ala-Arg-Lys-Gly-Ala-Leu-Arg-Gln-OH (H-FARKGALRQ-OH) [AWOT-1]
- cytokine secretion in keratinocytes (keratinocytes): effective in decreasing cytokine secretion

Substance: H-Phe-Ala-Arg-Lys-Gly-Ala-Leu-Arg-Gln-OH-acetate salt (H-FARKGALRQ-OH; also: acetate salt) [PDY-1]
- cytokine secretion from IL-17A activated keratinocytes (keratinocytes): decrease cytokine secretion
- cytokine secretion from LPS and TNFα activated keratinocytes (keratinocytes): decrease cytokine secretion

Substance: H-Thr-Leu-Asn-Pro-Gln-Trp-Glu-Ser-OH (H-TLNPQWES-OH) [AIP-1]
- cytokine secretion in keratinocytes (keratinocytes): effective in decreasing cytokine secretion

Substance: Insulin: insulin (Humulin, Eli Lilly, USA)
- adverse side effects at the wound (C57BL mice [1]; 1 μM daily for 7 days): increased inflammation, hyperplasia of epidermal cells, delayed differentiation of the spinous layer of epidermal cells and increased scarring
- incidence of abnormal angiogenesis in the wound area (C57BL mice [1]; 1 μM daily for 7 days, PBS control 25%): 60%
- Proliferative capacity of the epidermis (layers of basal cells, PCNA), average (C57BL mice [1]; group average, N = 5, 1 μM daily for 7 days): average 6.4
- Angiogenesis (C57BL mice [1]; [4]): high abnormal; also recorded: normal
- Proliferative capacity of the epidermis (layers of basal cells, PCNA) (C57BL mice [1]; [4]): 8 (2×) and 6 and 5 (2×)
- anti-inflammatory effect on wounds (C57BL mice [2]): no anti-inflammatory effect
- Incidence of severe inflammation in wound (%) (C57BL mice [2]; PBS control 60): 56%
- Dermal closure (H&E) [3, 5]: 0%
- Epidermal closure (K14) [3, 5]: 17%
- Epidermal differentiation (Kl) [3, 5]: 0%
- Granulation tissue [3, 6]: 40%
- Hypodermis [3, 6]: 10%
- Severe inflammation [3, 6]: 100%
- overall healing effect in diabetic wounds ([3]; 9 days post-wounding): only partial healing effects

Substance: Myristoyl-Phe-Ala-Arg-Lys-Gly-Ala-Leu-OH (Myristoyl-FARKGAL-OH; SMILES CCCCCCCCCCCCCC(=O)N[C@@H](Cc1ccccc1)C(=O)N[C@@H](C)C(=O)N[C@@H](CCCNC(=N)N)C(=O)N[C@@H](CCCCN)C(=O)NCC(=O)N[C@@H](C)C(=O)N[C@@H](CC(C)C)C(=O)O) [MPDY-1 sh]
- cytokine secretion from IL-17A activated keratinocytes (keratinocytes): decrease cytokine secretion
- cytokine secretion from LPS and TNFα activated keratinocytes (keratinocytes): decrease cytokine secretion

Substance: Myristoyl-Phe-Ala-Arg-Lys-Gly-Ala-Leu-OH-trifluoracetate salt (Myristoyl-FARKGAL-OH; also: trifluoroacetate salt) [AIP-2]
- cytokine secretion in keratinocytes (keratinocytes): effective in decreasing cytokine secretion

Substance: Myristoyl-Thru-Arg-Lys-Arg-Gln-Arg-Ala-Met-Arg-Arg-Arg-Val-His-Gln-Ile-Asn-Gly-OH (Myristoyl-TRKRQRAMRRRVHQING-OH; SMILES CCCCCCCCCCCCCC(=O)N[C@H](C(=O)N[C@@H](CCCNC(=N)N)C(=O)N[C@@H](CCCCN)C(=O)N[C@@H](CCCNC(=N)N)C(=O)N[C@@H](CCC(N)=O)C(=O)N[C@@H](CCCNC(=N)N)C(=O)N[C@@H](C)C(=O)N[C@@H](CCSC)C(=O)N[C@@H](CCCNC(=N)N)C(=O)N[C@@H](CCCNC(=N)N)C(=O)N[C@@H](CCCNC(=N)N)C(=O)N[C@H](C(=O)N[C@@H](Cc1c[nH]cn1)C(=O)N[C@@H](CCC(N)=O)C(=O)N[C@H](C(=O)N[C@@H](CC(N)=O)C(=O)NCC(=O)O)[C@@H](C)CC)C(C)C)[C@@H](C)O) [MPE-1]
- The initial day (of illness signs) (EAE mice; 0.1 mg/kg): 11 days
- EAE severity / score compared to control group (EAE mice; 0.1 mg/kg (0.1 μg/ml)): reduced EAE severity
- Score on day 18 (EAE mice; 0.1 mg/kg): 2.857
- Score on day 29 (EAE mice; 0.1 mg/kg): 1.929
- Score on day 37 (EAE mice; 0.1 mg/kg): 1.429
- EAE score on the initial day (EAE mice; 0.1 mg/kg): 0.429
- The initial day (of illness signs) (EAE mice; 1 mg/kg): 10 days
- Number of dead mice during 49 days (EAE mice; 1 mg/kg i.p. three times a week): 4
- Score on day 18 (EAE mice; 1 mg/kg): 3.071
- Score on day 29 (EAE mice; 1 mg/kg): 4.286
- Score on day 37 (EAE mice; 1 mg/kg): 4.286
- EAE score on the initial day (EAE mice; 1 mg/kg): 0.429
- average group score at the end of the experiment (day 42) (EAE mice; concentration of 0.1 μg/ml, control group score 2.86): 2.00

Substance: Palmitoyl-Phe-Ala-Arg-Lys-Gly-Ala-Leu-Arg-Gln-OH-acetate salt (Palmitoyl-FARKGALRQ-OH; also: acetate salt) [PPDY-1]
- cytokine secretion in keratinocytes (keratinocytes): effective in decreasing cytokine secretion
